In PMC2151567 (The Journal of General Physiology, 2006):

Biological target: mouse BK channel (mSlo) (Mus musculus, UniProt Q08460)
Type: cell-based

mouse BK channel (mSlo), sequence (Q08460 whole entry): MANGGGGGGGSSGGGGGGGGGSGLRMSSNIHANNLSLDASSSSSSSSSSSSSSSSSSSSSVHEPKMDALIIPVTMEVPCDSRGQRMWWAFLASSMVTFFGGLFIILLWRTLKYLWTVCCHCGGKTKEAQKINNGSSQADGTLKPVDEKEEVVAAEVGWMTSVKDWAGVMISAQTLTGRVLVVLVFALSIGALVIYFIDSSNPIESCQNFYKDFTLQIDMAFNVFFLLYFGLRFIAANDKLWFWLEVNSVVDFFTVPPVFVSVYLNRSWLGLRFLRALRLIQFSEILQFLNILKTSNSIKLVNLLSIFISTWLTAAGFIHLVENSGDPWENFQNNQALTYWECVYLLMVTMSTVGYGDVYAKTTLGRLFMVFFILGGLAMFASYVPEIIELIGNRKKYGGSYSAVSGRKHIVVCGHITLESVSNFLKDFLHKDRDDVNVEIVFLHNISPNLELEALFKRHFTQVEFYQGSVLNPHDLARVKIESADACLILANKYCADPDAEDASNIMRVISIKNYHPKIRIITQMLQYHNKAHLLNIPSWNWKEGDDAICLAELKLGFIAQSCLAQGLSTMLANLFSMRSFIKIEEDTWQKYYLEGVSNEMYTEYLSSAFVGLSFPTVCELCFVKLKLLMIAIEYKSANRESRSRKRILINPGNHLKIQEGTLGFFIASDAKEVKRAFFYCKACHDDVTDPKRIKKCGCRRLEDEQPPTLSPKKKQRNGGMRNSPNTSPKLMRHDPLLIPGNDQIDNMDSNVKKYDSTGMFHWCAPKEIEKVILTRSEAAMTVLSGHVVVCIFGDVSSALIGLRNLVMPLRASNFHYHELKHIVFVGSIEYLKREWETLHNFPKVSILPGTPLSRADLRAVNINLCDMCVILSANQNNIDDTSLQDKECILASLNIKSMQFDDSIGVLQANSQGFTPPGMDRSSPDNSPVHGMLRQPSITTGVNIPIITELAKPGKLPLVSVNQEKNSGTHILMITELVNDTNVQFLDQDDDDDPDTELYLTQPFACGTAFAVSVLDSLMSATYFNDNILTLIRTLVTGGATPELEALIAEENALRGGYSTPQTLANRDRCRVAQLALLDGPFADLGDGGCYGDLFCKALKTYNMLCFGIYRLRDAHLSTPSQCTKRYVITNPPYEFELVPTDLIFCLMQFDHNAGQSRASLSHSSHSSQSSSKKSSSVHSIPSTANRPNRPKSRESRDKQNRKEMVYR

In the case of `CCCC[N+](CCCC)(CCCC)CCCC` [TBA, tetrabutylammonium], the Kd is reported as 628 µM.
